# Experimental data: patent US11111222B2, “Hydroxyeicosatrienoic acid compounds and their use as therapeutic agents” (THE REGENTS OF THE UNIVERSITY OF MICHIGAN, priority 2016, dated 2021)
# “Also recorded” adds a separate entry of the source.
# Legend:
# [1] = system: platelets of mice expressing the human FcγRIIa receptor; assay: Animal model of ITP (anti-GPIX in mice expressing human FcγRIIa); format: in vivo, mouse; details: 6 mg/kg i.v. 10 min before GPIX antibody
# Experimental: Mice expressing the human immune-receptor FcγRIIa were injected IV with GPIX, an antibody known to induce acute ITP (Stolla et al., Blood 118(4): 1113-1120, 2011) as previously described (Yeung et al., Blood 124(4): 2271-2279, 2014). […] To determine if 12(S)-HETrE compounds would be viable therapeutics to prevent ITP in this model, 6 mg/kg 12(S)-HETrE was injected IV 10 minutes prior to GPIX antibody injection, and platelet count was measured at several time points prior to and following antibody injection. Additionally, immunofluorescent-labelled platelets that had been injected prior to the onset of ITP were measured in excised lungs 4 hours following GPIX administration.
# washed human platelets = assay: Human platelet aggregation after pre-treatment with adenylyl cyclase inhibitor SQ 22536; format: cell-based; details: platelets pre-treated with SQ 22536 (25 μM, 20 min); 12-HETrE 7.5 to 25 μM, 1 min; EC80 PAR4-AP
# Experimental: Blood from healthy donors was collected into vacutainers containing buffered sodium citrate, and platelets were isolated by serial centrifugation as described above for mouse platelets. The platelets were resuspended in Tyrode's buffer at 3×10^8 platelets/mL, unless otherwise specified.
# A lumi-aggregometer (Chrono-log model 700D) was used to measure platelet aggregation under stirring conditions (1100 rpm) at 37° C. […]
# Gαs = assay: [35S]GTPγS binding to immunoprecipitated Gαs, platelet membranes; format: biochemical; details: 25 μM; human platelet membranes; vs DMSO
# Experimental: PRP was isolated from whole blood as described above and then incubated with 1 mM aspirin for 1 hour at 37° C. Platelets were pelleted at 2000 g for 10 min in the presence of 10×ACD and apyrase. The pelleted platelets were washed with Tyrode's and centrifuged at 2000×g with 10×ACD for 10 min at room temperature. The platelets were flash frozen with liquid nitrogen and then resuspended in cold detergent-free TME buffer (50 mM Tris-HCl, pH 7.5, 20 mM MgCl2, 2 mM EDTA, and 100 mM NaCl) with 1 μM GDP and protease and phosphatase inhibitors to lyse the platelets. The lysed platelets were centrifuged at 1500 g at 4° C. for 5 min. The supernatant was collected and centrifuged at 100,000×g for 30 min at 4° C. The pelleted membranes were resuspended in TME buffer with 1 μM GDP and stored at −80° C. prior to use. Fatty acid metabolites, agonists, or DMSO and [^35S]GTPγS (10 nM) were added to platelet membranes (60 μg/reaction) on ice, and the tubes were immediately transferred to a 30° C. water bath shaker for 20 min. The reaction was terminated by the addition of ice-cold IP buffer (50 mM Tris-HCl, pH 7.5, 20 mM MgCl2, 150 mM NaCl, 0.5% Nonidet P-40, 0.33% aprotinin, 0.1 mM GDP, and 0.1 mM GTP). The samples were pre-cleared with Protein A agarose beads and normal rabbit IgG for 30 min on a nutator at 4° C. and then aliquoted equally into two tubes containing either normal rabbit IgG or a Gs antibody that had been conjugated to Protein A agarose beads. The samples were incubated on a nutator for 1 hr at 4° C. and washed 4 times with IP buffer and 1 time in TME buffer. The samples were boiled in 0.5% SDS for 30 sec, and the supernatants were collected following brief centrifugation. The supernatants were analyzed in 8 mL of scintillation fluid. The background counts for the normal rabbit IgG (50-200 cpm) for each sample were subtracted from the anti-Gs immunoprecipitated samples prior to analyzing the data.
# Tail bleeding assay = format: in vivo, mouse; details: mice retro-orbitally injected; 5 mm tail tip excised; vs control
# Experimental: Mice were anesthetized with ketamine/xyzaline and placed on a heating pad in prone position, the tip of the tail (5 mm) was excised with a sterile scalpel, and the tails were immediately immersed into isotonic saline solution (0.9%) warmed to 37° C. Bleeding time was assessed until cessation of blood flow from the tail for 1 minute.
# [2] = Cremaster muscle arterial puncture model of hemostasis; format: in vivo, mouse; details: laser puncture of cremaster arteriole; vs control treated mice
# Experimental: Mice were anesthetized, tail vein injected with anti-platelet and anti-fibrin antibodies and their cremaster muscle arterioles were prepared as described above. A high intensity laser pulse from the laser ablation system was used to puncture a hole in the cremaster muscle arteriole wall as visualized by red blood cell (RBC) leakage from the vessel. Images of RBCs leakage and hemostatic plug formation were acquired in real-time with a fluorescent microscope as described above. Arterial bleeding time was defined as the time from laser pulse injury until cessation of RBC leakage from the vessel.
# adenylyl cyclase = assay: LC/MS quantification of cAMP in washed human platelets; format: cell-based; details: 25 μM, 1 min; platelets pre-treated with 10 μM IBMX; vs DMSO
# Experimental: Washed human platelets were treated with the specific ligand or vehicle control for 1 min at room temperature, and quenched with an equal volume of ice-cold 2× platelet lysis buffer containing protease and phosphatase inhibitors. Lysed platelet samples were centrifuged at 14,000 g for 7 min at 4° C. to pellet cytoskeleton and the supernatant was stored in −80° C.
# To prepare the sample for LC/MS injection, 200 μL of the supernatant was spiked with 400 pg of adenosine-3′,5′-cyclic-13C5 monophosphate (^13C5-cAMP) (Toronto Research Chemicals, Inc.), an internal standard, and 600 μL of LC/MS grade acetonitrile (Fisher Scientific). The sample was briefly vortexed and centrifuged at 14,000 rpm for 10 min at 4° C. The supernatants were then air dried in a SpeedVac and reconstituted in 200 μL of LC/MS grade water and centrifuged at 10,000 rpm for 5 min at 4° C. and used for LC/MS injection.
# The separation and detection of cAMP was performed on a Waters ACQUITY UPLC system equipped with a Xevo Triple Quadrupole Mass Spectrometer (TQ-S MS/MS). […]
# The mass spectrometer was operated with an ESI source in positive mode. […] Cyclic AMP (cAMP) was quantitated using ^13C5-cAMP as the internal standard. […]
compound,measurement,setting,value
"CCCCC/C=C\C[C@H](O)/C=C/C=C\CCCCCCC(=O)O [12(S)-HETrE, 12(S)-hydroxy-8Z,10E,14Z-eicosatrienoic acid]",reduction of thrombi in the lungs,[1]; excised lungs,more than 40%
same,accumulation of fluorescently labeled platelets in the lungs,"[1]; lungs excised 4 hours after GPIX, vs vehicle",prevented accumulation of fluorescently labeled platelets in the lungs
same,platelet count (thrombocytopenia),[1]; vs vehicle,no signs of thrombocytopenia; also recorded: prevented thrombocytopenia
same,PAR4-AP-mediated platelet aggregation,washed human platelets,unable to inhibit PAR4-AP-mediated platelet aggregation
same,[35S]GTPγS binding to immunoprecipitated Gαs,Gαs,significant increase in [^35S]GTPγS binding
same,tail bleeding time,Tail bleeding assay,no significant difference in tail bleeding time
same,duration of RBC leakage (arterial bleeding time),[2],No significant difference in the duration of RBC leakage
same,level of intracellular cAMP,adenylyl cyclase,significant increase in the level of intracellular cAMP
